The source of these data is US11731946B2, “Broad spectrum antivirulence, anti-persistence compounds” (priority 2017, dated 2023).

By IC50 is commonly meant the point on the concentration scale where inhibition reaches its midpoint.

Each structure is given as a SMILES string.

One assay relates to MvfR regulon. The assay is described as follows: pqsA gene expression (pqsA-GFP reporter). The format is cell-based, P. aeruginosa. Particulars: Pseudomonas aeruginosa, read-out: pqsA @10 uM (%), compound at 10 uM. How it is done:
Experiments were performed to identify compounds that inhibit the MvfR regulon without altering growth, ultimately attenuating P. aeruginosa infection. MvfR is a LysR-type transcriptional regulator that directs HAQs synthesis, including that of its ligands, 4-hydroxy-2-heptylquinoline (HHQ) and 3,4-dihydroxy-2-heptylquinoline (PQS).
MvfR promotes the production of HAQs by binding to and activating the pqs operon, which encodes enzymes for HAQ synthesis. Anthranilic acid (AA), derived from the phnAB, kynABU, and trpEG pathways, is the precursor for HAQs. pqsA encodes an anthranilate-coenzyme A ligase, which activates anthranilic acid and catalyzes the first committed step to HAQ production. The exact roles of PqsB and PqsC are unknown, though both show homology to acyl-carrier-proteins and both are required for HHQ and PQS production. […] The final gene of the operon, pqsE encodes for a putative hydrolase, and while the protein is not required for the synthesis of HAQs, it is necessary for pyocyanin production.
Nanomolar levels of most of these MvfR antagonists impeded the activity of MvfR and in consequence the MvfR virulence regulated ACRP functions, including: (1) the production of the important pro-acute P. aeruginosa virulence factor pyocyanin (see e.g., FIG. 9A) the efficacy of two of these potent inhibitors, D57 and D88, was also confirmed by testing many different MDR P. aeruginosa clinical isolates (see e.g., FIG. 11A-11B), providing further confidence of their inhibitory potency; (2) the expression of the genes that encode the enzymes catalyzing the synthesis of both pro-acute and pro-persistence MvfR-regulated virulence molecules, 4-hydroxyl-2-alkyl-quinolines (HAQs) and 2-aminoacetophenon (2-AA), as assessed by pqsAGFP reporter gene expression (see e.g., FIG. 9B) and HAQ production showing the levels of MvfR inducers/ligands HHQ and PQS as well as of the molecules critical for biofilm and Antibiotic tolerant/persiters cells formation HQNO and 2-AA (see e.g., FIG. 9C); (3) AT/P cell formation (see e.g., FIGS. 11A, 12A); (4) biofilm formation (see e.g., FIG. 12B); and (5) biofilm dispersal of preformed biofilm by potentiating antibiotic action (see e.g., FIG. 11B).
For the compound `Cc1cccc(NC(=O)CC(=O)Nc2ccc(C#N)cc2)c1` [Compound 85], the activity at 10 µM was 84.8%.
On the same count and under the same terms, next, `N#Cc1ccc(NC(=O)CC(=O)Nc2cccc(Cl)c2)cc1` [Compound 86]: 59.8%; `N#Cc1ccc(NC(=O)CC(=O)Nc2cccc(F)c2)cc1` [Compound 87]: 77.8%; `N#Cc1ccc(NC(=O)CC(=O)Nc2ccc(F)cn2)cc1` [Compound 88]: 95.1%.
In the case of `CN(C(=O)CC(=O)Nc1ccc(C#N)cc1)c1ccc(C#N)cc1` [Compound 89], the activity at 10 µM turned out to be 98.5%.
As to `N#Cc1ccc(NC(=O)CC(=O)Nc2cccc(C#N)c2)cc1` [Compound 90], the activity at 10 µM was 97.2%.
On to `N#Cc1ccc(NC(=O)CC(=O)c2ccc(F)cc2)cc1` [Compound 91], for which the activity at 10 µM was found to be 87.4%.
Same read-out and setting: next, `N#Cc1ccc(NC(=O)CC(=O)Nc2ccc(C#N)nc2)cc1` [Compound 92]: 25.4%; `N#Cc1ccc(NC(=O)CC(=O)Nc2ccc(C#N)cn2)cc1` [Compound 93]: 61.3%.
With `N#Cc1ccc(NC(=O)C2CCN(c3ccc(F)cc3)C2=O)cc1` (stereo not shown) [Compound 94], the activity at 10 µM was found to be 109%.
Same read-out and setting: in the case of `CC(C(=O)Nc1ccc(C#N)cc1)C(=O)Nc1ccc(C#N)cc1` [Compound 95] it was 45.7%.
Take `N#Cc1ccc(NC(=O)CS(=O)(=O)Nc2ccc(C#N)cc2)cc1` [Compound 96]: the activity at 10 µM amounted to 118%.
The same measure, in the same setting: in the case of `N#Cc1ccc(NC(=O)CC(=O)N2CCc3cc(C#N)ccc32)cc1` [Compound 97] it was 99.7%.

For the next assay, the system named is MvfR regulon. The assay is described as follows: Quantification of pyocyanin (OD520nm of chloroform-extracted cultures). The format is cell-based, P. aeruginosa. Particulars: Pseudomonas aeruginosa, read-out: IC50 pyocyanin (μM).
As for `N#Cc1ccc(NC(=O)CC(=O)Nc2cccc(Cl)c2)cc1` [Compound 86], the IC50 was determined as 1.54 µM.
Still for that read-out and setting: in the case of `N#Cc1ccc(NC(=O)CC(=O)Nc2ccc(C#N)nc2)cc1` [Compound 92] it was 1.61 µM; in that of `CC(C(=O)Nc1ccc(C#N)cc1)C(=O)Nc1ccc(C#N)cc1` [Compound 95], 1.35 µM.

Still in this assay, the particulars now being: Pseudomonas aeruginosa, read-out: pyocyanin @1 uM (%), compound at 1 uM.
For `Cc1cccc(NC(=O)CC(=O)Nc2ccc(C#N)cc2)c1` [Compound 85], the activity at 1 µM came to 94%.
The same measure, in the same setting: next, `N#Cc1ccc(NC(=O)CC(=O)Nc2cccc(Cl)c2)cc1` [Compound 86]: 83.2%; `N#Cc1ccc(NC(=O)CC(=O)Nc2cccc(F)c2)cc1` [Compound 87]: 94.6%; `N#Cc1ccc(NC(=O)CC(=O)Nc2ccc(F)cn2)cc1` [Compound 88]: 97%.
On the same count and under the same terms, next, `CN(C(=O)CC(=O)Nc1ccc(C#N)cc1)c1ccc(C#N)cc1` [Compound 89]: 95.7%.
The same measure, in the same setting: next, `N#Cc1ccc(NC(=O)CC(=O)Nc2cccc(C#N)c2)cc1` [Compound 90]: 91.8%; `N#Cc1ccc(NC(=O)CC(=O)c2ccc(F)cc2)cc1` [Compound 91]: 99.2%.
For `N#Cc1ccc(NC(=O)CC(=O)Nc2ccc(C#N)nc2)cc1` [Compound 92], the activity at 1 µM was 64.5%.
For `N#Cc1ccc(NC(=O)CC(=O)Nc2ccc(C#N)cn2)cc1` [Compound 93], the activity at 1 µM worked out at 79.6%.
The same measure, in the same setting: in the case of `N#Cc1ccc(NC(=O)C2CCN(c3ccc(F)cc3)C2=O)cc1` (stereo not shown) [Compound 94] it was 94.6%.
Same read-out and setting: in the case of `CC(C(=O)Nc1ccc(C#N)cc1)C(=O)Nc1ccc(C#N)cc1` [Compound 95] it was 93.5%; in that of `N#Cc1ccc(NC(=O)CS(=O)(=O)Nc2ccc(C#N)cc2)cc1` [Compound 96], 97.3%; in that of `N#Cc1ccc(NC(=O)CC(=O)N2CCc3cc(C#N)ccc32)cc1` [Compound 97], 99.9%.

The same assay, now with this note: Pseudomonas aeruginosa, read-out: pyocyanin @10 uM (%), compound at 10 uM.
Regarding `Cc1cccc(NC(=O)CC(=O)Nc2ccc(C#N)cc2)c1` [Compound 85], the activity at 10 µM was 75.3%.
Consider `N#Cc1ccc(NC(=O)CC(=O)Nc2cccc(Cl)c2)cc1` [Compound 86], for which the activity at 10 µM came out at 45.4%.
With `N#Cc1ccc(NC(=O)CC(=O)Nc2cccc(F)c2)cc1` [Compound 87], the activity at 10 µM amounted to 65.5%.
Still for that read-out and setting: in the case of `N#Cc1ccc(NC(=O)CC(=O)Nc2ccc(F)cn2)cc1` [Compound 88] it was 77.7%.
Still for that read-out and setting: in the case of `CN(C(=O)CC(=O)Nc1ccc(C#N)cc1)c1ccc(C#N)cc1` [Compound 89] it was 102%; in that of `N#Cc1ccc(NC(=O)CC(=O)Nc2cccc(C#N)c2)cc1` [Compound 90], 88.5%; in that of `N#Cc1ccc(NC(=O)CC(=O)c2ccc(F)cc2)cc1` [Compound 91], 98.3%.
With `N#Cc1ccc(NC(=O)CC(=O)Nc2ccc(C#N)nc2)cc1` [Compound 92], the activity at 10 µM was 13.9%.
Consider `N#Cc1ccc(NC(=O)CC(=O)Nc2ccc(C#N)cn2)cc1` [Compound 93], for which the activity at 10 µM was determined as 53.5%.
Regarding `N#Cc1ccc(NC(=O)C2CCN(c3ccc(F)cc3)C2=O)cc1` (stereo not shown) [Compound 94], the activity at 10 µM worked out at 94%.
On to `CC(C(=O)Nc1ccc(C#N)cc1)C(=O)Nc1ccc(C#N)cc1` [Compound 95], for which the activity at 10 µM came to 23.9%.
Same read-out and setting: in the case of `N#Cc1ccc(NC(=O)CS(=O)(=O)Nc2ccc(C#N)cc2)cc1` [Compound 96] it was 109%; in that of `N#Cc1ccc(NC(=O)CC(=O)N2CCc3cc(C#N)ccc32)cc1` [Compound 97], 74.5%.

Staying with this assay, now noted: Pseudomonas aeruginosa, read-out: pyocyanin @50 uM (%), compound at 50 uM.
As to `Cc1cccc(NC(=O)CC(=O)Nc2ccc(C#N)cc2)c1` [Compound 85], the activity at 50 µM turned out to be 49.7%.
On to `N#Cc1ccc(NC(=O)CC(=O)Nc2cccc(Cl)c2)cc1` [Compound 86], for which the activity at 50 µM stood at 12.5%.
Turning to `N#Cc1ccc(NC(=O)CC(=O)Nc2cccc(F)c2)cc1` [Compound 87], the activity at 50 µM was determined as 30.2%.
For the compound `N#Cc1ccc(NC(=O)CC(=O)Nc2ccc(F)cn2)cc1` [Compound 88], the activity at 50 µM came out at 48.3%.
With `CN(C(=O)CC(=O)Nc1ccc(C#N)cc1)c1ccc(C#N)cc1` [Compound 89], the activity at 50 µM came out at 84.8%.
Still for that read-out and setting: next, `N#Cc1ccc(NC(=O)CC(=O)Nc2cccc(C#N)c2)cc1` [Compound 90]: 49.4%; `N#Cc1ccc(NC(=O)CC(=O)c2ccc(F)cc2)cc1` [Compound 91]: 77.1%; `N#Cc1ccc(NC(=O)CC(=O)Nc2ccc(C#N)nc2)cc1` [Compound 92]: 6.8%.
For `N#Cc1ccc(NC(=O)CC(=O)Nc2ccc(C#N)cn2)cc1` [Compound 93], the activity at 50 µM is 14.3%.
Turning to `N#Cc1ccc(NC(=O)C2CCN(c3ccc(F)cc3)C2=O)cc1` (stereo not shown) [Compound 94], the activity at 50 µM stood at 95.2%.
Turning to `CC(C(=O)Nc1ccc(C#N)cc1)C(=O)Nc1ccc(C#N)cc1` [Compound 95], the activity at 50 µM came out at 7%.
Still for that read-out and setting: next, `N#Cc1ccc(NC(=O)CS(=O)(=O)Nc2ccc(C#N)cc2)cc1` [Compound 96]: 111%; `N#Cc1ccc(NC(=O)CC(=O)N2CCc3cc(C#N)ccc32)cc1` [Compound 97]: 82.3%.
